Laboratory results from ChEMBL document CHEMBL5036349, “Development of potent dual PDK1/AurA kinase inhibitors for cancer therapy: Lead-optimization, structural insights, and ADME-Tox profile” (Eur J Med Chem, 2021).
Activity calls are given as the source filed them. The rule behind the calls is not given here.

What was measured:
[1] = biological target: T1, Protein deacetylase HDAC6 (Homo sapiens) (UniProt Q9UBN7); test: Inhibition on human recombinant HDAC6 at 10 uM measured after 20 min by luminescence glo assay
T1 sequence (whole entry): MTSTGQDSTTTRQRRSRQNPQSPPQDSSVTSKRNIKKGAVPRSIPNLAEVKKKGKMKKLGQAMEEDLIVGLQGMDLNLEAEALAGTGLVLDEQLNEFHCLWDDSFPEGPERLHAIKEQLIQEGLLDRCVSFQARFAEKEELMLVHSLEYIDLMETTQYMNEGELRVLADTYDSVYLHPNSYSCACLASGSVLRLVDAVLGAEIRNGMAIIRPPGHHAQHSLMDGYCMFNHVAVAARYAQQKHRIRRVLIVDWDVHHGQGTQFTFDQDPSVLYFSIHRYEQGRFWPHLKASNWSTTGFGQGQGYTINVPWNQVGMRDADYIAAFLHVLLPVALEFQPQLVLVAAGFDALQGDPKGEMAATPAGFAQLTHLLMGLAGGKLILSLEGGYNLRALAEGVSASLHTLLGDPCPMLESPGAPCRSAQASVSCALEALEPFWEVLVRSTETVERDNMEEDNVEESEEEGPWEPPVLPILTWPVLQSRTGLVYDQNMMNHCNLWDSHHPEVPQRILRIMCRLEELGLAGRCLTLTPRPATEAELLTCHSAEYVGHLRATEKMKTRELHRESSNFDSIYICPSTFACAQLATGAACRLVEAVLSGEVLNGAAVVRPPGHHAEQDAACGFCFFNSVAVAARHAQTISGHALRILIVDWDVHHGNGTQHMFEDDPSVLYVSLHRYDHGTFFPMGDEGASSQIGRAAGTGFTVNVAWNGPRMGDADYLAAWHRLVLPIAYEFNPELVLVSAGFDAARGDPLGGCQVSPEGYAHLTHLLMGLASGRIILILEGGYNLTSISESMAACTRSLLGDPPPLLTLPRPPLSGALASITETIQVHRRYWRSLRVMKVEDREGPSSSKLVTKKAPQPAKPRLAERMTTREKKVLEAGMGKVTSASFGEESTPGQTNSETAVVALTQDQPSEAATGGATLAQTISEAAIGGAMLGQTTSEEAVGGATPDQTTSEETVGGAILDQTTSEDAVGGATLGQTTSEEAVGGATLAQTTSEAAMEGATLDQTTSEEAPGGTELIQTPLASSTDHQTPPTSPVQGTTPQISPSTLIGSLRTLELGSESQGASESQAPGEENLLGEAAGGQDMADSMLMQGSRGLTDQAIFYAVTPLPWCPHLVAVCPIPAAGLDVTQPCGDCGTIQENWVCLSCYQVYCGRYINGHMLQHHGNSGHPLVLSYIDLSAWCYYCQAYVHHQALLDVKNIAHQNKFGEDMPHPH

[2] = biological target: Histone deacetylase 4 (Homo sapiens) (UniProt P56524); test: Inhibition on human recombinant HDAC4 at 10 uM measured after 20 min by luminescence glo assay
NCI-H69 = test: Cytotoxicity against human NCI-H69 cells measured after 72 hrs by MTT assay; format: functional, cell-based; conditions: NCI-H69, 72 h
[3] = Cytotoxicity against human TC71 cells measured after 72 hrs by MTT assay; format: functional, cell-based; conditions: TC-71, 72 h
NCI-H82 = test: Cytotoxicity against human NCI-H82 cells measured after 72 hrs by MTT assay; format: functional, cell-based; conditions: NCI-H82, 72 h
PC-3 = test: Cytotoxicity against human PC-3 cells measured after 72 hrs by MTT assay; format: functional, cell-based; conditions: PC-3, 72 h
786-0 = test: Cytotoxicity against human 786-0 cells measured after 72 hrs by MTT assay; format: functional, cell-based; conditions: 786-0, 72 h
[4] = Cytotoxicity against human 6647 cells measured after 72 hrs by MTT assay; format: functional, cell-based; conditions: Homo sapiens, 6647, 72 h
HCT-116 = test: Cytotoxicity against human HCT-116 cells measured after 72 hrs by MTT assay; format: functional, cell-based; conditions: HCT-116, 72 h
CAKI-1 = test: Cytotoxicity against human CAKI-1 cells measured after 72 hrs by MTT assay; format: functional, cell-based; conditions: CAKI-1, 72 h
SK-N-MC [5] = test: Cytotoxicity against human SK-N-MC cells measured after 72 hrs by MTT assay; format: functional, cell-based
TC-32 = test: Cytotoxicity against human TC-32 cells measured after 72 hrs by MTT assay; format: functional, cell-based; conditions: TC-32, 72 h
IGROV-1 = test: Cytotoxicity against human IGROV-1 cells measured after 72 hrs by MTT assay; format: functional, cell-based; conditions: IGROV-1, 72 h
MCF7 = test: Cytotoxicity against human MCF7 cells measured after 72 hrs by MTT assay; format: functional, cell-based; conditions: MCF7, 72 h
A673 = test: Cytotoxicity against human A673 cells measured after 72 hrs by MTT assay; format: functional, cell-based; conditions: A673, 72 h
[6] = AUC (infinity) in CD-1 mouse at 10 mg/kg iv measured by UPLC-MS/MS method; format: ADME, organism-based; set-up: time infinity, route intravenous, dose 10 mg/kg; conditions: in vivo
[7] = biological target: 3-phosphoinositide-dependent protein kinase 1 (Homo sapiens) (UniProt O15530); test: Modulation in PDK-1 phosphorylation in human SK-N-MC cell at 1 uM measured after 30 min by Western blot analysis
SK-N-MC [8] = test: Upregulation of p21 protein expression level in human SK-N-MC cell at 1 uM incubated for 2 hrs by western blot analysis; format: functional, tissue-based
[9] = Cytotoxicity against human TC71 cells at 30 uM assessed as cell proliferation rate measured after 72 hrs by MTT assay relative to control; format: functional; conditions: TC-71
TC-71 = test: Anticlonogenic activity against human TC71 cells assessed as reduction of cell survival at 0.5 to 20 uM measured after 10 days by SRB staining clonogenic survival assay; format: functional, cell-based; conditions: dose 0.5-20 µM, time 10.0 day
[10] = Clearance in CD-1 mouse at 10 mg/kg iv measured by UPLC-MS/MS method; format: ADME, organism-based; conditions: in vivo
[11] = AUC in CD-1 mouse at 10 mg/kg iv measured by UPLC-MS/MS method; format: ADME, organism-based; set-up: dose 10 mg/kg; conditions: in vivo
[12] = biological target: Aurora kinase A (Homo sapiens) (UniProt O14965); test: Modulation in AURA protein in human SK-N-MC cell at 1 uM measured after 30 min by Western blot analysis; format: tissue-based
SK-N-MC [13] = test: Inhibition of MAPK signaling in human SK-N-MC cell assessed as decrease in phosphorylated ERK 1/2 at 1 uM measured after 30 min by Western blot analysis; format: tissue-based
SK-N-MC [14] = test: Upregulation of Cdc2 protein expression level in human SK-N-MC cell at 1 uM incubated for 2 hrs by western blot analysis; format: functional, tissue-based
[15] = Drug uptake in human […] cell at 1.5 uM measured upto 120 min by UPLC-MS/MS analysis; format: ADME, tissue-based; conditions: 2 h
[16] = Half life in CD-1 mouse at 10 mg/kg iv measured by UPLC-MS/MS method; format: ADME, organism-based; conditions: in vivo
[17] = Drug uptake in human […] cell at 1.5 uM measured with in 5 min by UPLC-MS/MS analysis; format: ADME, tissue-based
SK-N-MC [18] = test: Upregulation of C-Myc protein expression level in human SK-N-MC cell at 1 uM incubated for 2 hrs by western blot analysis; format: functional, tissue-based

Sequence of Histone deacetylase 4 (Homo sapiens) (P56524 whole entry): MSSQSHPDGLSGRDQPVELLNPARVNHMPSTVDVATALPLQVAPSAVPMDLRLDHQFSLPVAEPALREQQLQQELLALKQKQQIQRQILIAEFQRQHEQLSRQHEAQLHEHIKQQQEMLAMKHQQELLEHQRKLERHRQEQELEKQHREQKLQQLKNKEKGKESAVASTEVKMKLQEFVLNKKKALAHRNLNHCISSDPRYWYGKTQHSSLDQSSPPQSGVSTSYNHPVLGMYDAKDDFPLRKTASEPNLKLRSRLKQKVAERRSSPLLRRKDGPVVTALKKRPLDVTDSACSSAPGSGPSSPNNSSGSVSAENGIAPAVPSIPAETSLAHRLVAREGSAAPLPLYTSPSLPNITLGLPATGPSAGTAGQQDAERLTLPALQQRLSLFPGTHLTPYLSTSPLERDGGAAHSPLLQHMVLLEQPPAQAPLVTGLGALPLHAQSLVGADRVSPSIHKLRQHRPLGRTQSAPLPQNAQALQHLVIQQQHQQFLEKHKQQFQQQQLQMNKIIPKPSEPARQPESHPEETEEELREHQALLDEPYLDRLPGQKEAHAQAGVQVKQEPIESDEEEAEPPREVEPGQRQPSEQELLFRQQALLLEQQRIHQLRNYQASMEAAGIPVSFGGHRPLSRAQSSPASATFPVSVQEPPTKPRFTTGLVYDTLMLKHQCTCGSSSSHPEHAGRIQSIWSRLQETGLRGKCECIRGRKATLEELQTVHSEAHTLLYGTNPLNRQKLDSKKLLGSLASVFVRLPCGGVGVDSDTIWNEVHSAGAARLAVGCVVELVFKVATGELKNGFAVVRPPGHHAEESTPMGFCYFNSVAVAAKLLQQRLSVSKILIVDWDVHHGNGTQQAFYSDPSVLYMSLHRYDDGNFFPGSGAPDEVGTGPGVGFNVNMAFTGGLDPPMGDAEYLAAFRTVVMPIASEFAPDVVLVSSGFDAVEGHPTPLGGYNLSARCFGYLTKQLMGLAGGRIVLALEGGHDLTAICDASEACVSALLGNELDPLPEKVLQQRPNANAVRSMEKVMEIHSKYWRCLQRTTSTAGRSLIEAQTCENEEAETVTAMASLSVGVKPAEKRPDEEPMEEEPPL
Sequence of 3-phosphoinositide-dependent protein kinase 1 (Homo sapiens) (O15530 whole entry, looked up): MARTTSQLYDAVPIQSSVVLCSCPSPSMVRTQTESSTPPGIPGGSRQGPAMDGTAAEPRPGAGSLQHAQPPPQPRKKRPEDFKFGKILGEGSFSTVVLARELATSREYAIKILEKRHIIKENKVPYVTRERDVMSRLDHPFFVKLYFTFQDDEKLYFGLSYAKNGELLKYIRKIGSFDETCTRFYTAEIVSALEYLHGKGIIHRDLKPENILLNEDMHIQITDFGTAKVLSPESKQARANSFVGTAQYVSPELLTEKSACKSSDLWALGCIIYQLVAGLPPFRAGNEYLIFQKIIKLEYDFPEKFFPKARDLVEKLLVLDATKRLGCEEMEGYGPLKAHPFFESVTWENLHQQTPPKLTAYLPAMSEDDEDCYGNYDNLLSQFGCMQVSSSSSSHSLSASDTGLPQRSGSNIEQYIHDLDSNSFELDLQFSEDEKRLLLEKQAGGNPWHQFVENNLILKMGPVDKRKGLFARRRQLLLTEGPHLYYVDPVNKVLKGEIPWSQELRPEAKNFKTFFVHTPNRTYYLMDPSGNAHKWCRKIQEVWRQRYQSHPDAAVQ
Sequence of Aurora kinase A (Homo sapiens) (O14965 whole entry): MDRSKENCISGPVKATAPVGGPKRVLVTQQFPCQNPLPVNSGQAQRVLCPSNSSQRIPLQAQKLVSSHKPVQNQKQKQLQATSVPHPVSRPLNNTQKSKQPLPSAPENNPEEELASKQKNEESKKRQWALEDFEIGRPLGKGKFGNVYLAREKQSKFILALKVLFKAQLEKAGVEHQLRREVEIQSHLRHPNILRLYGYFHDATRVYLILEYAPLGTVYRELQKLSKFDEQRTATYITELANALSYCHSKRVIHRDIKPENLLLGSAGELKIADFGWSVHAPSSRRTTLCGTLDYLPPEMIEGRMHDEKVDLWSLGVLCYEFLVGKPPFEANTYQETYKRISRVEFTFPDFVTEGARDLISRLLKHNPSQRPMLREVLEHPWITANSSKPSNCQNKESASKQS

SMILES | inhibition [1] [%] | inhibition [2] [%] | IC50 (NCI-H69) [µM] | IC50 [3] [µM] | IC50 (NCI-H82) [µM] | IC50 (PC-3) [µM] | IC50 (786-0) [µM] | IC50 [4] [µM] | IC50 (HCT-116) [µM] | IC50 (CAKI-1) [µM] | IC50 (SK-N-MC [5]) [µM] | IC50 (TC-32) [µM] | IC50 (IGROV-1) [µM] | IC50 (MCF7) [µM] | further results
O=C(CCNC(=O)c1cccn(Cc2ccc(F)c(F)c2)c1=O)Nc1ccc2c(c1)/C(=C/c1cnc[nH]1)C(=O)N2 | < 30 | < 30 |  |  |  |  |  |  |  |  |  |  |  |  | 
Cc1c(Br)cc(C(=O)N[C@@H](C(=O)Nc2ccc3c(c2)/C(=C/c2cnc[nH]2)C(=O)N3)c2ccccc2)c(=O)n1Cc1ccc(F)c(F)c1 | < 30 | < 30 | > 30 | > 30 | > 30 | > 30 | > 30 | > 30 | > 30 | > 30 | > 30 | > 30 | > 30 | > 30 | 
O=C1Nc2ccc(NC(=O)[C@H](NC(=O)c3cccn(Cc4ccc(F)c(F)c4)c3=O)c3ccccc3)cc2/C1=C/c1cnc[nH]1 (stereo in doubt) | < 30 | < 30 | > 30 | 16.9 | > 30 | > 30 | > 30 | 4.8 | 3.6 | > 30 | 3 | > 30 | > 30 | > 30 | IC50 (A673): > 30 µM; AUC [6]: 5720 ng·h/mL; Activity [7]: inactive; Activity (SK-N-MC [8]): Active; Emax at 30 µM [9]: 60%; Activity (TC-71): Dose-Dependent Effect; CL [10]: 75 mL/h; AUC [11]: 4220 ng·h/mL; Activity [12]: inactive; inhibition (SK-N-MC [13]): Active; Activity (SK-N-MC [14]): Active; Drug uptake [15]: 800 ng/mL; t1/2 [16]: 1.5 h; Drug uptake [17]: 100 ng/mL; Activity (SK-N-MC [18]): Active
Cc1ccc(C(=O)NCC(=O)Nc2ccc3c(c2)/C(=C/c2cnc[nH]2)C(=O)N3)c(=O)n1Cc1ccc(F)c(F)c1 | < 30 | < 30 |  |  |  |  |  |  |  |  |  |  |  |  | 
